Test results published in publication PMC4408175, “Functional and structural diversity in GH62 α-L-arabinofuranosidases from the thermophilic fungus Scytalidium thermophilum” (Microbial Biotechnology, 2014).

Biological target: T1, Abf62C (Mycothermus thermophilus, UniProt A0A059U759)
T1 construct: gene AXH62C; N-terminal His tag, pET15b LIC, E. coli BL21(DE3) Gold; monomer
Assay: X-ray crystal structure of complex, […] Å
Format: binding
Settings: co-crystals, 2 mM preincubation, 20 mM xylotriose in reservoir, 22 °C; active site subsites +2NR, +1, +2R; no calcium

T1 sequence (A0A059U759 entry or part of it): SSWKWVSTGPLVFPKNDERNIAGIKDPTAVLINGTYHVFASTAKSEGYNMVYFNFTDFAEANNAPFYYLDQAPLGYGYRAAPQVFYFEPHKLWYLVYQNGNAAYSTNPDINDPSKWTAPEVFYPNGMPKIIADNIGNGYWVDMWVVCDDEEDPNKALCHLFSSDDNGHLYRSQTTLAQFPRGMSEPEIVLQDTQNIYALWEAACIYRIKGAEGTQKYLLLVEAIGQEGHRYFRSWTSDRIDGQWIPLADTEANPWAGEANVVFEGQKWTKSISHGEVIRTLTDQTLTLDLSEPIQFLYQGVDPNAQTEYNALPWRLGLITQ

Q: `OC1OC[C@@H](O[C@@H]2OC[C@@H](O[C@@H]3OC[C@@H](O)[C@H](O)[C@H]3O)[C@H](O)[C@H]2O)[C@H](O)[C@H]1O` (stereo partly shown) [xylotriose] was tested. Which “X-ray crystal structure of complex, 1.48 Å” value did it give?
A: Abf62C-xylotriose complex have been deposited in the Research Co-laboratory for Structural Bioinformatics Protein Data Bank
